Reference: PubChem BioAssay AID651973 (The Scripps Research Institute Molecular Screening Center, 2013)
The source made the active and inactive calls. How the calls were made is not given here.

Test system: Cell-based VP16 transactivation luciferase reporter, luminescence
Experiment: VP16 transactivation reporter inhibitors, dose response, counter-screen for LRH-1 inverse agonist project, cell-based, luminescence (AID 651973)

With `COc1ccc(C2(C)NC(=O)N(CC(=O)Nc3ccc(C)cc3Br)C2=O)cc1OC` (stereo not drawn) as the molecule, how does the IC50 read?
The IC50 was > 35.9 µM (inactive).

For `O=C(CSc1n[nH]c(-c2ccccc2)n1)Nc1ccc(F)cc1F`, which IC50 is on record?
The IC50 was > 35.9 µM (inactive).

`CC(=O)c1ccc(OC(C)C(=O)OCC(=O)NCCc2ccccc2)cc1` (stereo not drawn) was tested. Which IC50 did it give?
Its IC50 is > 35.9 µM (inactive).

Which IC50 does the source give for `NS(=O)(=O)c1ccc(O)c(NC(=O)c2ccc([N+](=O)[O-])o2)c1` here?
The IC50 was > 35.9 µM (inactive).

Which IC50 does the source give for `COc1ccc(CCNC(=O)COC(=O)c2cc(Cl)nc(Cl)c2)cc1` here?
Its IC50 is > 35.9 µM (inactive).

For `COc1ccc(CCNC(=O)CN2C(=O)NC3(CCCCC3C)C2=O)cc1` (stereo not drawn), which IC50 is on record?
The IC50 was > 35.9 µM (inactive).

`Cc1ccc(NC(=O)COC(=O)C(NS(=O)(=O)c2ccc(Cl)cc2)C(C)O)cc1C` (stereo not drawn) was tested. Which IC50 did it give?
The IC50 was > 35.9 µM (inactive).

For `COc1ccc(/C=N/NC(=O)c2ccc(NC(=O)c3cccc([N+](=O)[O-])c3)cc2)c(OC)c1`, which IC50 is on record?
The IC50 was > 35.9 µM (inactive).

For `CCOc1ccc(NC(=O)COC(=O)c2ccc3c(c2)OCCO3)cc1`, which IC50 is on record?
The IC50 was > 35.9 µM (inactive).

`O=C(NCc1ccco1)c1nn(-c2ccccc2)c(=O)c2ccccc12` was tested. Which IC50 did it give?
The IC50 was > 35.9 µM (inactive).

How did the IC50 turn out when `CCOc1ccc(CCNC(=O)CN2C(=O)NC3(CCc4ccccc43)C2=O)cc1OCC` (stereo not drawn) was run?
Its IC50 is > 35.9 µM (inactive).

Which IC50 does the source give for `Cc1ccc2cccc(OCC(=O)NCCC3=CCCCC3)c2n1` here?
The IC50 was > 35.8 µM (inactive).

Which IC50 does the source give for `COC(=O)c1ccc(COc2ccc(/C=N/NC(N)=S)cc2)o1` here?
The IC50 was > 35.9 µM (inactive).

With `COc1ccc(CCNC(=O)COC(=O)C23CC4CC(CC(C4)C2)C3)cc1` as the molecule, how does the IC50 read?
Its IC50 is > 35.9 µM (inactive).

With `Cc1no[n+]([O-])c1COc1ccc(/C=N/n2nnnc2N)cc1` as the molecule, how does the IC50 read?
Its IC50 is > 35.9 µM (inactive).

How did the IC50 turn out when `CCC(C)NC(=O)c1ccc2c(c1)N(Cc1ccccc1)C(=O)CS2` (stereo not drawn) was run?
The IC50 was > 35.9 µM (inactive).

How did the IC50 turn out when `CC(=O)Nc1ccc(N=c2cc([N+](=O)[O-])cc(Cl)n2O)cc1` was run?
The IC50 was > 35.9 µM (inactive).

Which IC50 does the source give for `COc1ccc(S(=O)(=O)N2CCN(CC(=O)Nc3ccc(C)c(F)c3)CC2)cc1` here?
Its IC50 is > 35.9 µM (inactive).

With `Cc1cc(Br)ccc1NC(=O)CN1C(=O)C2CC=CCC2C1=O` (stereo not drawn) as the molecule, how does the IC50 read?
Its IC50 is > 35.9 µM (inactive).

How did the IC50 turn out when `COc1cc(C(=O)Nc2ccccc2N2CCN(S(C)(=O)=O)CC2)cc(OC)c1OC` was run?
Its IC50 is > 35.9 µM (inactive).

`Cc1ccc(-c2nn3c(C)nnc3s2)cc1NC(=O)c1cccs1` was tested. Which IC50 did it give?
Its IC50 is > 35.9 µM (inactive).

`CCCOc1ccc(NC(=O)CC2C(=O)N(C)C(=S)N2Cc2ccc3c(c2)OCO3)cc1` (stereo not drawn) was tested. Which IC50 did it give?
Its IC50 is 8.7 µM.

Which IC50 does the source give for `CS(=O)(=O)c1ccc(-c2cc(NC=O)c3ncc(-c4ccc(F)cc4)n3c2)cc1` here?
Its IC50 is 14.6 µM (inactive).

Which IC50 does the source give for `Cc1c(Cl)cccc1NC(=O)CS(=O)(=O)c1ccccc1` here?
The IC50 was > 35.8 µM (inactive).

With `O=C(CSc1nncc(=O)[nH]1)Nc1cccc([N+](=O)[O-])c1` as the molecule, how does the IC50 read?
Its IC50 is 34.4 µM (inactive).

How did the IC50 turn out when `O=C(CSc1nc(=O)n2cc(Cl)ccc2n1)Nc1ccc2c(c1)OCCO2` was run?
The IC50 was > 35.9 µM (inactive).

`CC(=O)Nc1ccc(NC(=O)CSc2nnnn2C2CCCCC2)cc1` was tested. Which IC50 did it give?
The IC50 was > 35.9 µM (inactive).

Which IC50 does the source give for `NS(=O)(=O)c1ccc(CCNC(=O)COc2ccc3c4c(c(=O)oc3c2)CCC4)cc1` here?
The IC50 was > 35.9 µM (inactive).

Which IC50 does the source give for `Cc1cccc(NC(=O)CSc2nc3[nH]ncc3c(=O)[nH]2)c1C` here?
Its IC50 is > 35.9 µM (inactive).

With `COc1ccc(OC)c(NC(=O)c2ccccc2NC(=O)c2ccco2)c1` as the molecule, how does the IC50 read?
Its IC50 is > 35.9 µM (inactive).

With `C/C(=N\Nc1cc(C(F)(F)F)ccc1Cl)c1ccncc1` as the molecule, how does the IC50 read?
Its IC50 is > 35.9 µM (inactive).

For `Cn1cc(Cl)c(C(=O)OCC(=O)Nc2ccc(S(N)(=O)=O)cc2)n1`, which IC50 is on record?
The IC50 was > 35.9 µM (inactive).

With `CCOc1ccc(OCCN2C(=O)NC(Cc3c[nH]c4ccccc34)C2=O)cc1` (stereo not drawn) as the molecule, how does the IC50 read?
Its IC50 is > 35.9 µM (inactive).

Which IC50 does the source give for `COC(=O)c1ccc(NC(=O)CSc2nc3ncccc3[nH]2)cc1` here?
Its IC50 is > 35.9 µM (inactive).

With `CC(=O)Nc1ccc(NC(=O)COC(=O)Cc2c[nH]c3ccccc23)cc1` as the molecule, how does the IC50 read?
Its IC50 is > 35.9 µM (inactive).

`CC(=O)Nc1cc(-c2ccc(F)cc2)cn2c(-c3ccc(S(C)(=O)=O)cc3)cnc12` was tested. Which IC50 did it give?
The IC50 was > 35.9 µM (inactive).

With `O=c1[nH]c(Nc2ccc3c(c2)OCCO3)nnc1Cc1ccccc1` as the molecule, how does the IC50 read?
Its IC50 is > 35.9 µM (inactive).

`COc1cc(OC)cc(C(=O)N[C@H](C(=O)OCC(=O)Nc2ccc3c(c2)OCO3)C(C)C)c1` was tested. Which IC50 did it give?
Its IC50 is > 35.9 µM (inactive).

`COC(=O)c1ccc(NC(=O)CSc2nncn2-c2cccnc2)cc1` was tested. Which IC50 did it give?
The IC50 was > 35.9 µM (inactive).

`COC(=O)c1ccc(NC(=O)CSc2nn3c(=O)c(C)nnc3s2)cc1` was tested. Which IC50 did it give?
Its IC50 is > 35.9 µM (inactive).

With `COc1ccc(OCCNC(=O)C2(C)CCN2Cc2ccc3ccccc3c2)cc1` (stereo not drawn) as the molecule, how does the IC50 read?
Its IC50 is 23.8 µM (inactive).

Which IC50 does the source give for `CCc1cc(=O)oc2c(C)c(OCC(=O)NCCCN3CCCC3=O)ccc12` here?
Its IC50 is > 35.9 µM (inactive).

For `O=C(Nc1ccccc1)c1oc2ccccc2c1NC(=O)C1CC1`, which IC50 is on record?
Its IC50 is > 35.9 µM (inactive).

For `COc1cc([N+](=O)[O-])ccc1NC(=O)Cn1ccsc1=N`, which IC50 is on record?
The IC50 was > 35.9 µM (inactive).

Which IC50 does the source give for `Cc1cc(OCC(=O)N2CCC(O)CC2)c2c(C)cc(=O)oc2c1` here?
Its IC50 is > 35.9 µM (inactive).

Which IC50 does the source give for `O=C1CCCN2N=C(SCC(=O)Nc3ccc(Br)cc3)SC2=N1` here?
The IC50 was > 35.9 µM (inactive).

For `COc1ccc(CCn2c(C)cc(C(=O)COC(=O)c3ccc(O)cc3O)c2C)cc1`, which IC50 is on record?
Its IC50 is > 35.9 µM (inactive).

`COc1cc(/C=N/n2nnnc2N)ccc1OCc1c(C)no[n+]1[O-]` was tested. Which IC50 did it give?
Its IC50 is > 35.9 µM (inactive).
